Values of other authors as cited in patent publication US8445278B2, “Process for producing decellularized biological tissues” (Medtronic, Inc., priority 2005, dated 2013).
pIC50: −log10 of the molar value.

System: fresh rat hepatocytes

Compound: CCCCCCCCCCCCOS(=O)(=O)[O-].[Na+] [SDS, sodium dodecyl sulphate]
- pIC50: 4.31
- concentration at which SDS is toxic: ≥ 10 µM
